Paper PMC10610214 (Pharmaceuticals, 2023)

Tests used:
AChE (from electric eel) = biological target: T1, AChE (from electric eel) (Electrophorus electricus, UniProt O42275); test: biochemical; conditions: AChE from electric eel; mean ± SD of three experiments; read-out: AChE Inhibition (IC50)
T1 construct: AChE (from electric eel); purchased Sigma Chemical Company (St. Louis, MO, USA)
Experimental: (§1) The ChE inhibitory activity of the test compounds was determined using the modified Ellman’s method. The compounds were dissolved in DMSO (10 mmol/L) and then diluted with PB (phosphate buffer) solution to attain a range of final concentrations. […] Briefly, 100 μL of different concentrations of the test or standard compounds and 100 μL of AChE/BuChE (0.5 U/mL) were added into 48-well plates and then co-incubated at 37 °C for 30 min. […] All concentrations mentioned are final.

[1] = biological target: T2, BuChE (from equine serum) (Equus caballus, UniProt P81908); test: biochemical; conditions: mean ± SD of three experiments, read-out: BuChE Inhibition (IC50)
T2 construct: BuChE (from equine serum); purchased Sigma Chemical Company (St. Louis, MO, USA); host or cells: equine serum
T2 sequence (P81908 whole entry): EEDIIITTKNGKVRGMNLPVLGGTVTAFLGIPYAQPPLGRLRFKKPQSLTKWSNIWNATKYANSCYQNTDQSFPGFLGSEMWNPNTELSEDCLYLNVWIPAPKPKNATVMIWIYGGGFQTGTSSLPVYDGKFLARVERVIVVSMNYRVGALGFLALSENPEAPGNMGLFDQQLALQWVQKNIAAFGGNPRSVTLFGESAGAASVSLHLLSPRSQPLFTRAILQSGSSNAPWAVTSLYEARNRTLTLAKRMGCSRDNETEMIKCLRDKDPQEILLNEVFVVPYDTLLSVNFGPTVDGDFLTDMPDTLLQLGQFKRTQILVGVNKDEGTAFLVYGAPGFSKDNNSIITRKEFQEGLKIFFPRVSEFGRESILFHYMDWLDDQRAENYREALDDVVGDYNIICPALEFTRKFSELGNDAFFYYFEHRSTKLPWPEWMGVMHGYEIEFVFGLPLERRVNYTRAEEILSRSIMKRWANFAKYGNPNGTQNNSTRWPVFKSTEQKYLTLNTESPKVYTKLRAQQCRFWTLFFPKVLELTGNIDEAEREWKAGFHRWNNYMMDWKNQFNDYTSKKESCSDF
Experimental: as §1

H2O2-induced PC12 cells = test: Neuroprotection against H2O2-induced PC12 cell injury (MTT); type: cell-based; conditions: H2O2 250 μM, mean ± SEM
Experimental: Neuroprotection assay is similar to cytotoxicity. Oxidative cellular damage caused by H2O2 has become one of the important methods to study oxidative damage in neural cells. PC12 cells were seeded into a 96-well plate at a density of 5.0 × 10^3 cells per well. After the cells were incubated overnight, the old medium was discarded. […] After incubating overnight, 20 μL of MTT solution (5 mg/mL, Sigma-Aldrich) was added per well, and the cells were incubated for an additional 4 h. Afterwards, the supernatant was removed and 150 μL of DMSO was added. The 96-well plate was placed on the shaker for 10–15 min, and then the absorbance at 492 nm was measured by a microplate reader.

PC12 cells = test: Cytotoxicity in PC12 cells (MTT); type: cell-based
Experimental: The cytotoxicity and neuroprotective effects of the compounds on PC12 cells were evaluated by MTT assay. PC12 cells were seeded into a 96-well plate at a density of 5.0 × 10^3 cells per well. After the cells were incubated overnight, the old medium was discarded. The cells were incubated for another 24 h with fresh medium containing compounds at a concentration of 30 or 50 μM. A total of 20 μL of MTT solution (5 mg/mL, Sigma-Aldrich, Shanghai, China) was then added per well, and the cells were incubated for an additional 4 h. Afterwards, the supernatant was removed and 150 μL of DMSO was added to solubilize formazan crystals. The 96-well plate was placed on the shaker for 10–15 min, and then the absorbance at 492 nm was measured by a microplate reader.

T1 sequence (O42275 24-633): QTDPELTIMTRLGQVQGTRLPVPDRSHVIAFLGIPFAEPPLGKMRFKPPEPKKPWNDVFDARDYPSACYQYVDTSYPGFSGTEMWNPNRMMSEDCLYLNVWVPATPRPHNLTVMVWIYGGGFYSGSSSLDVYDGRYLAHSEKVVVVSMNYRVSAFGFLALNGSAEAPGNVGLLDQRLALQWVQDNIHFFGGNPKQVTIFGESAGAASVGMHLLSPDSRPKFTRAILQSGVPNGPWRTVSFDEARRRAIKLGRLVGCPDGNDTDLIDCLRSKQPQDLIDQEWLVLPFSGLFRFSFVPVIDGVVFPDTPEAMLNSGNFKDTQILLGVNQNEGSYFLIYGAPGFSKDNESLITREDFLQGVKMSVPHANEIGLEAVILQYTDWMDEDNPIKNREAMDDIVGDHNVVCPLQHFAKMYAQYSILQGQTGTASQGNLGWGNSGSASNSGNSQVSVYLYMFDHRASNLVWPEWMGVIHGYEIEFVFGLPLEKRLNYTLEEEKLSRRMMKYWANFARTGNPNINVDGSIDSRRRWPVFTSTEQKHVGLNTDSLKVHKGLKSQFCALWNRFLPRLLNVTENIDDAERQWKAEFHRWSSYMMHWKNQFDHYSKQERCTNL

Structure (SMILES)	IC50 (AChE (from electric eel)) [µM]	IC50 [1] [µM]	H2O2-Induced PC12 Cell Viability (% of Control) (H2O2-induced PC12 cells; compound 10 μM)	H2O2-Induced PC12 Cell Viability (% of Control) (H2O2-induced PC12 cells; compound 30 μM)	Cell Viability (% of Control) (PC12 cells; compound 30 μM)	Cell Viability (% of Control) (PC12 cells; compound 50 μM)
O=C1c2ccccc2-n2c1nc1ccc(NS(=O)(=O)c3ccc(Br)cc3)cc1c2=O [8e]	> 50	> 50	41.78 ± 1.2 % of Control	55.86 ± 0.9 % of Control	99.8 ± 0.7 % of Control	99.7 ± 3.1 % of Control
O=C1c2ccccc2-n2c1nc1ccc(NS(=O)(=O)c3ccc(F)cc3)cc1c2=O [8f]	43 ± 1.12	> 50	34.24 ± 3.5 % of Control	42.25 ± 1.7 % of Control	99.4 ± 1.7 % of Control	98.3 ± 3.0 % of Control
O=C1c2ccccc2-n2c1nc1ccc(NS(=O)(=O)c3cccc(F)c3)cc1c2=O [8g]	> 50	> 50	44.37 ± 0.5 % of Control	52.28 ± 2.3 % of Control	99.6 ± 1.2 % of Control	99.5 ± 2.7 % of Control
O=C1c2ccccc2-n2c1nc1ccc(NS(=O)(=O)c3ccccc3F)cc1c2=O [8h]	> 50	> 50	36.03 ± 3.0 % of Control	46.73 ± 3.5 % of Control	99.4 ± 1.4 % of Control	98.3 ± 2.7 % of Control
CC(=O)Nc1ccc(S(=O)(=O)Nc2ccc3nc4n(c(=O)c3c2)-c2ccccc2C4=O)cc1 [8i]	> 50	25.9 ± 2.38	48.46 ± 1.6 % of Control	59.63 ± 2.5 % of Control	99.8 ± 1.2 % of Control	99.4 ± 1.3 % of Control
COc1ccc(S(=O)(=O)Nc2ccc3nc4n(c(=O)c3c2)-c2ccccc2C4=O)cc1OC [8k]	> 50	> 50	44.37 ± 0.5 % of Control	52.28 ± 2.3 % of Control	99.6 ± 1.2 % of Control	99.5 ± 2.7 % of Control
COc1ccc(S(=O)(=O)Nc2ccc3nc4n(c(=O)c3c2)-c2ccccc2C4=O)c(OC)c1 [8l]	> 50	> 50	34.61 ± 3.7 % of Control	38.1 ± 2.7 % of Control	99.4 ± 1.1 % of Control	98.7 ± 1.3 % of Control
O=C1c2ccccc2-n2c1nc1ccc(NS(=O)(=O)c3ccc(OC(F)(F)F)cc3)cc1c2=O [8m]	> 50	> 50	44.67 ± 2.3 % of Control	53.92 ± 3.9 % of Control	99.5 ± 3.1 % of Control	98.2 ± 1.7 % of Control
O=C1c2ccccc2-n2c1nc1ccc(NS(=O)(=O)c3ccccc3OC(F)(F)F)cc1c2=O [8n]	42 ± 1.7	> 50	38.94 ± 1.5 % of Control	49.96 ± 0.8 % of Control	99.2 ± 1.9 % of Control	98.3 ± 2.7 % of Control
O=C1c2ccccc2-n2c1nc1ccc(NS(=O)(=O)c3ccccc3C(F)(F)F)cc1c2=O [8o]	8.86 ± 0.76	> 50	42.56 ± 2.1 % of Control	54.6 ± 3.8 % of Control	99.7 ± 2.4 % of Control	99.4 ± 1.1 % of Control
O=C1c2ccccc2-n2c1nc1ccc(NS(=O)(=O)c3c(Cl)cccc3Cl)cc1c2=O [8p]	> 50	> 50	42.32 ± 0.7 % of Control	50.5 ± 0.5 % of Control	99.6 ± 2.7 % of Control	98.2 ± 1.7 % of Control
